From patent publication US20230114728A1 (Venatorx Pharmaceuticals, Inc., priority 2019, published 2023)
Values after ≈ are worked out from the molar mass of the structure shown.

Experiments:
[1] = target: T1, P. aeruginosa PBP3 (Pseudomonas aeruginosa, UniProt G3XD46); experiment: Bocillin-FL fluorescence polarization competition binding assay, P. aeruginosa PBP3; details: fluorescence polarization competition binding assay using Bocillin-FL
T1 construct: made in house
Summary of the method: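 Binding of boronic acid inhibitors to purified Pseudomonas aeruginosa (PA01) PBP3 was measured by fluorescence polarization competition with Bocillin-FL, a fluorescent penicillin V. Reactions of 80 μl contained 0.75 μM PBP3 and 0.1 μM Bocillin-FL in 50 mM Hepes (pH 8.0), 300 mM NaCl and 5% (v/v) glycerol, in black 384-well plates. FP (Excitation 490 nm, Emission 520 nm) was read for up to 60 minutes. EC50 is the concentration that halves PBP-bound Bocillin-FL.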

[2] = target: T2, E. coli K12 PBP3 (Escherichia coli, UniProt P0AD68); experiment: biochemical; type: binding
T2 construct: made in house
Summary of the method: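 Fluorescence polarization (ex 490/em 520 nm) competition of inhibitors against Bocillin-FL at 0.1 μM, read up to 60 min. Final PBP levels: E. coli PBP3 1.5 μM; A. baumannii PBP2 2.5 μM, PBP3 0.2 μM in Tris pH 8.0/NaCl/glycerol/Tween 20; N. gonorrhoeae PBP2 […] in Hepes pH 8.0/NaCl/glycerol. EC50 = concentration halving PBP-bound Bocillin-FL.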

[3] = test system: N. gonorrhoeae WHO K; experiment: Liquid broth MIC in Fastidious broth; type: cell-based; details: Neisseria gonorrhoeae, read-out: Minimum Inhibitory Concentration, N. gonorrhoeae WHO K
Summary of the method: (§1)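 Broth microdilution in Fastidious broth with 2-fold compound series; inoculum from 24 h chocolate agar colonies, 5×10^5 CFU/mL start. Incubated ~24 hours at 36° C, 5% CO2. MIC read visually as lowest concentration giving <10% growth versus full-growth wells; strains carry mosaic PBP2.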

[4] = test system: N. gonorrhoeae H041; experiment: Liquid broth MIC in Fastidious broth; type: cell-based; details: Neisseria gonorrhoeae, H041, read-out: Minimum Inhibitory Concentration, N. gonorrhoeae H041
Summary of the method: as §1

[5] = test system: N. gonorrhoeae ATCC 49226; experiment: Liquid broth MIC in Fastidious broth; type: cell-based; details: Neisseria gonorrhoeae, ATCC49226; N. gonorrhoeae strain ATCC 49226; Fastidious broth; read-out: Minimum Inhibitory Concentration, N. gonorrhoeae ATCC 49226
Summary of the method: (§2)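 Colonies were swabbed from chocolate agar after 24 h growth and standardised by optical density at 600 nm. Compounds were serially diluted twofold in Fastidious broth, and bacteria added to give 5×10^5 CFU/mL. After about 24 h at 36 °C in 5% CO2, the lowest concentration allowing under 10% growth was taken as MIC.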

[6] = test system: N. gonorrhoeae FA1090; experiment: Liquid broth MIC in Fastidious broth; type: cell-based; details: Neisseria gonorrhoeae; N. gonorrhoeae strain FA1090; Fastidious broth; read-out: Minimum Inhibitory Concentration, N. gonorrhoeae FA1090
Summary of the method: as §2

[7] = test system: N. gonorrhoeae WHO L; experiment: Liquid broth MIC in Fastidious broth; type: cell-based; details: Neisseria gonorrhoeae; N. gonorrhoeae strain WHO L; Fastidious broth; read-out: Minimum Inhibitory Concentration, N. gonorrhoeae WHO L
Summary of the method: as §2

[8] = test system: N. gonorrhoeae WHO G; experiment: Liquid broth MIC in Fastidious broth; type: cell-based; details: Neisseria gonorrhoeae; N. gonorrhoeae strain WHO G; Fastidious broth; read-out: Minimum Inhibitory Concentration, N. gonorrhoeae WHO G
Summary of the method: as §2

T2 sequence (P0AD68 1-577): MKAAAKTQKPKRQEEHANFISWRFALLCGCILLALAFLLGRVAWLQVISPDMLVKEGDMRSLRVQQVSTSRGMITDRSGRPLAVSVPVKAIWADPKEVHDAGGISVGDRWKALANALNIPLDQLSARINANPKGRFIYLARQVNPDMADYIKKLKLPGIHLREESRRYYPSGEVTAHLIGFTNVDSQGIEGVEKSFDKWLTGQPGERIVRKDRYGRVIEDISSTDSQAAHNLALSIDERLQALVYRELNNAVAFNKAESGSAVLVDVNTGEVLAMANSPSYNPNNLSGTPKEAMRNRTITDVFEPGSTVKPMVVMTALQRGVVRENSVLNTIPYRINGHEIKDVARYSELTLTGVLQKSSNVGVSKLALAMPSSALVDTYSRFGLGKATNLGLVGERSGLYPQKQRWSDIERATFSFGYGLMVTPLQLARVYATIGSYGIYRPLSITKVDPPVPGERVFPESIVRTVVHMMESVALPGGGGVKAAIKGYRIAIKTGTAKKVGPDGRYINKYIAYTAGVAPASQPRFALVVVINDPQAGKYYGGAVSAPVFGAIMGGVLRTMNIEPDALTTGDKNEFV
T1 sequence (G3XD46 whole entry): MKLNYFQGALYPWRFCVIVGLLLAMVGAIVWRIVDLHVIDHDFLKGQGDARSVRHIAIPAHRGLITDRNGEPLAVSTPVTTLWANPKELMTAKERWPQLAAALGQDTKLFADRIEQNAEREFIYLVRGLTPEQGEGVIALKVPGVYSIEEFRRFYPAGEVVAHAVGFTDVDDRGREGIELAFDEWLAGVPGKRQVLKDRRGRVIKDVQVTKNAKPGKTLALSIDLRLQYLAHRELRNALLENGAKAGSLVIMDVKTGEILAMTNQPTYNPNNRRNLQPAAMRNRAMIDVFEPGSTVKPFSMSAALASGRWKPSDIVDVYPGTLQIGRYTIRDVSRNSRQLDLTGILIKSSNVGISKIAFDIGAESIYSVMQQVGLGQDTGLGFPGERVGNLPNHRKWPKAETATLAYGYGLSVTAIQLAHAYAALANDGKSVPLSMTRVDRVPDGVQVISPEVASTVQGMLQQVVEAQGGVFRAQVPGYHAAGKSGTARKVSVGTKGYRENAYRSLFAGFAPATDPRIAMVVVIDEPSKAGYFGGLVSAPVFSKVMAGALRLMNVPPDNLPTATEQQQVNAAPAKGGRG

SMILES | P. aeruginosa PBP3 Potency [1] | EC50 [2] [µM] | MIC [3] [µg/mL] | MIC [4] [µg/mL] | MIC [5] [µg/mL] | MIC [6] [µg/mL] | MIC [7] [µg/mL] | MIC [8] [µg/mL]
O=C(NC(C(=O)N[C@H]1Cc2ccc(F)c(C(=O)O)c2OB1O)c1ncc(O)cc1F)c1ccnc(F)c1 (stereo partly drawn) [Example 53, (3R)-7-fluoro-3-(2-(3-fluoro-5-hydroxypyridin-2-yl)-2-(2-fluoroisonicotinamido)acetamido)-2-hydroxy-3,4-dihydro-2H-benzo[e][1,2]oxaborinine-8-carboxylic acid] | D (D represents a potency <10 μM) | 30 to 500 | > 64 | > 64 | > 64 | 4 to 8 (≈ 7.75 to 15.5 µM) | > 64 | > 64
CCN1CCN(C(=O)NC(C(=O)N[C@H]2Cc3ccc(C=O)c(C(=O)O)c3OB2O)c2csc(N)n2)C(=O)C1=O (stereo partly drawn) [Example 57, (3R)-3-(2-(2-aminothiazol-4-yl)-2-(4-ethyl-2,3-dioxopiperazine-1-carboxamido)acetamido)-7-formyl-2-hydroxy-3,4-dihydro-2H-benzo[e][1,2]oxaborinine-8-carboxylic acid] | C (C represents a potency between 10 and 30 μM) | 30 to 500 | > 64 | > 64 | 16 to 32 (≈ 28.7 to 57.3 µM) | 4 to 8 (≈ 7.16 to 14.3 µM) | > 64 | 16 to 32 (≈ 28.7 to 57.3 µM)
CCN1CCN(C(=O)NC(C(=O)N[C@H]2Cc3ccc(CO)c(C(=O)O)c3OB2O)c2csc(N)n2)C(O)C1=O (stereo partly drawn) [Example 58, (3R)-3-(2-(2-aminothiazol-4-yl)-2-(4-ethyl-2-hydroxy-3-oxopiperazine-1-carboxamido)acetamido)-2-hydroxy-7-(hydroxymethyl)-3,4-dihydro-2H-benzo[el][1,2]oxaborinine-8-carboxylic acid] | B (B represents a potency between 30 μM and 500 μM inclusive) | 30 to 500 | > 64 | > 64 | > 64 | > 64 | > 64 | > 64
CCN1CCN(C(=O)NC(C(=O)N[C@H]2Cc3ccc(OCCN)c(C(=O)O)c3OB2O)c2ccccc2)C(=O)C1=O (stereo partly drawn) [Example 60, (3R)-7-(2-aminoethoxy)-3-(2-(4-ethyl-2,3-dioxopiperazine-1-carboxamido)-2-phenylacetamido)-2-hydroxy-3,4-dihydro-2H-benzo[e][1,2]oxaborinine-8-carboxylic acid] | C (C represents a potency between 10 and 30 μM) | 30 to 500 | > 64 | > 64 | > 64 | 16 to 32 (≈ 28.2 to 56.4 µM) | > 64 | > 64
CCN1CCN(C(=O)NC(C(=O)N[C@H]2Cc3cccc(C(=O)O)c3OB2O)c2cccc(O)c2)C(=O)C1=O (stereo partly drawn) [Example 68, (3R)-3-(2-(4-ethyl-2,3-dioxopiperazine-1-carboxamido)-2-(3-hydroxyphenyl)acetamido)-2-hydroxy-3,4-dihydro-2H-benzo[e][1,2]oxaborinine-8-carboxylic acid] | D (D represents a potency <10 μM) | 30 to 500 | 16 to 32 (≈ 30.5 to 61 µM) | 16 to 32 (≈ 30.5 to 61 µM) | 4 to 8 (≈ 7.63 to 15.3 µM) | 0.25 to 0.5 (≈ 0.477 to 0.954 µM) | 16 to 32 (≈ 30.5 to 61 µM) | 4 to 8 (≈ 7.63 to 15.3 µM)
CCN1CCN(C(=O)NC(C(=O)N[C@H]2Cc3cccc(C(=O)O)c3OB2O)c2ccc(O)cc2O)C(=O)C1=O (stereo partly drawn) [Example 69, (3R)-3-(2-(2,4-dihydroxyphenyl)-2-(4-ethyl-2,3-dioxopiperazine-1-carboxamido)acetamido)-2-hydroxy-3,4-dihydro-2H-benzo[e][1,2]oxaborinine-8-carboxylic acid] | C (C represents a potency between 10 and 30 μM) | < 30 | > 64 | > 64 | 4 to 8 (≈ 7.4 to 14.8 µM) | 0.25 to 0.5 (≈ 0.463 to 0.925 µM) | 16 to 32 (≈ 29.6 to 59.2 µM) | 4 to 8 (≈ 7.4 to 14.8 µM)
CCN1CCN(C(=O)NC(C(=O)N[C@H]2Cc3cccc(C(=O)O)c3OB2O)c2ccc(O)cc2OC)C(=O)C1=O (stereo partly drawn) [Example 70, (3R)-3-(2-(4-ethyl-2,3-dioxopiperazine-1-carboxamido)-2-(4-hydroxy-2-methoxyphenyl)acetamido)-2-hydroxy-3,4-dihydro-2H-benzo[e][1,2]oxaborinine-8-carboxylic acid] | D (D represents a potency <10 μM) | 30 to 500 | > 64 | > 64 | 16 to 32 (≈ 28.9 to 57.7 µM) | 1 to 2 (≈ 1.8 to 3.61 µM) | > 64 | 16 to 32 (≈ 28.9 to 57.7 µM)
O=C(O)c1ccc(C(NC(=O)c2c(F)cc(O)c(O)c2Cl)C(=O)N[C@H]2Cc3ccc(F)c(C(=O)O)c3OB2O)cc1F (stereo partly drawn) [Example 71, (3R)-3-(2-(4-carboxy-3-fluorophenyl)-2-(2-chloro-6-fluoro-3,4-dihydroxybenzamido)acetamido)-7-fluoro-2-hydroxy-3,4-dihydro-2H-benzo[e][1,2]oxaborinine-8-carboxylic acid] | D (D represents a potency <10 μM) | > 500 | > 64 | > 64 | > 64 | > 64 | > 64 | > 64
CCN1CCN(C(=O)NC(C(=O)N[C@H]2Cc3cccc(C(=O)O)c3OB2O)c2cccc(N)c2)C(=O)C1=O (stereo partly drawn) [Example 72, (3R)-3-(2-(3-aminophenyl)-2-(4-ethyl-2,3-dioxopiperazine-1-carboxamido)acetamido)-2-hydroxy-3,4-dihydro-2H-benzo[e][1,2]oxaborinine-8-carboxylic acid] | D (D represents a potency <10 μM) | < 30 | > 64 | > 64 | 4 to 8 (≈ 7.64 to 15.3 µM) | 0.25 to 0.5 (≈ 0.478 to 0.955 µM) | > 64 | 1 to 2 (≈ 1.91 to 3.82 µM)
CCN1CCN(C(=O)NC(C(=O)N[C@H]2Cc3cccc(C(=O)O)c3OB2O)c2cccc(NC(=O)c3ccc(O)c(O)c3Cl)c2)C(=O)C1=O (stereo partly drawn) [Example 73, (3R)-3-(2-(3-(2-chloro-3,4-dihydroxybenzamido)phenyl)-2-(4-ethyl-2,3-dioxopiperazine-1-carboxamido)acetamido)-2-hydroxy-3,4-dihydro-2H-benzo[e][1,2]oxaborinine-8-carboxylic acid] | D (D represents a potency <10 μM) | < 30 | > 64 | > 64 | > 64 | 1 to 2 (≈ 1.44 to 2.88 µM) | > 64 | 16 to 32 (≈ 23.1 to 46.1 µM)
CCN1CCN(C(=O)NC(C(=O)N[C@H]2Cc3cccc(C(=O)O)c3OB2O)c2ccc(O)c(NC(=O)c3ccc(O)c(O)c3Cl)c2)C(=O)C1=O (stereo partly drawn) [Example 74, (3R)-3-(2-(3-(2-chloro-3,4-dihydroxybenzamido)-4-hydroxyphenyl)-2-(4-ethyl-2,3-dioxopiperazine-1-carboxamido)acetamido)-2-hydroxy-3,4-dihydro-2H-benzo[e][1,2]oxaborinine-8-carboxylic acid] | D (D represents a potency <10 μM) | < 30 | > 64 | > 64 | > 64 | 1 to 2 (≈ 1.41 to 2.82 µM) | > 64 | 16 to 32 (≈ 22.5 to 45.1 µM)
